Data: ChEMBL document CHEMBL6120947, “Synthesis and Antiosteoporotic Characterization of Diselenyl Maleimides: Discovery of a Potent Agent for the Treatment of Osteoporosis by Targeting RANKL” (J Med Chem, 2024)
Activity calls are given as the source filed them. No cut-off for these calls is given here.

Legend:
[1] = test system: RAW264.7; assay: Inhibition of osteoclastogenesis in RANKL-induced osteoclast differentiation in mouse RAW264.7 cells incubated for 4 days by TRAP staining based analysis; type: functional, cell-based; settings: time 4.0 day
[2] = test system: RAW264.7; assay: Cytotoxicity against mouse RAW264.7 cells assessed as decrease in cell viability at 1 uM incubated for 48 hrs by MTT assay; type: toxicity, cell-based; settings: raw264.7, 48 h

Cc1ccc(CN2C(=O)C([Se]c3ccccc3)=C([Se]c3ccccc3)C2=O)cc1
inhibition [1]: inactive | Activity [2]: Toxic

CC[Se]C1=C([Se]CC)C(=O)N(c2ccccc2)C1=O
inhibition [1]: inactive

CN1C(=O)C([Se]c2ccccc2)=C([Se]c2ccccc2)C1=O
inhibition [1]: inactive

N#Cc1ccc([Se]C2=C([Se]c3ccc(C#N)cc3)C(=O)N(Cc3ccccc3)C2=O)cc1
inhibition [1]: inactive

COc1ccc([Se]C2=C([Se]c3ccc(OC)cc3)C(=O)N(Cc3ccccc3)C2=O)cc1
inhibition [1]: inactive

CCC[Se]C1=C([Se]CCC)C(=O)N(c2ccccc2)C1=O
inhibition [1]: inactive

N#Cc1ccc(CN2C(=O)C([Se]c3ccccc3)=C([Se]c3ccccc3)C2=O)cc1
inhibition [1]: inactive

O=C1C([Se]c2ccc(Cl)cc2)=C([Se]c2ccc(Cl)cc2)C(=O)N1Cc1ccccc1
inhibition [1]: inactive

O=C1C([Se]c2cccc(F)c2)=C([Se]c2cccc(F)c2)C(=O)N1Cc1ccccc1
inhibition [1]: inactive

O=C1C([Se]c2ccccc2Br)=C([Se]c2ccccc2Br)C(=O)N1c1ccccc1
inhibition [1]: inactive | Activity [2]: Toxic

O=C1C([Se]c2ccccc2)=C([Se]c2ccccc2)C(=O)N1Cc1ccccc1Cl
inhibition [1]: inactive

CC(=O)c1ccc(N2C(=O)C([Se]c3ccccc3)=C([Se]c3ccccc3)C2=O)cc1
inhibition [1]: Active

CCN1C(=O)C([Se]c2ccccc2)=C([Se]c2ccccc2)C1=O
inhibition [1]: inactive

Cc1cccc([Se]C2=C([Se]c3cccc(C)c3)C(=O)N(c3ccccc3)C2=O)c1
inhibition [1]: Active

O=C1C([Se]c2ccccc2Cl)=C([Se]c2ccccc2Cl)C(=O)N1c1ccccc1
inhibition [1]: Active

O=C1C([Se]c2ccccc2)=C([Se]c2ccccc2)C(=O)N1c1ccc(Br)cc1
inhibition [1]: inactive

O=C1NC(=O)C([Se]c2ccccc2)=C1[Se]c1ccccc1
inhibition [1]: Active

Cc1ccccc1CN1C(=O)C([Se]c2ccccc2)=C([Se]c2ccccc2)C1=O
inhibition [1]: inactive

N#Cc1cccc([Se]C2=C([Se]c3cccc(C#N)c3)C(=O)N(c3ccccc3)C2=O)c1
inhibition [1]: inactive | Activity [2]: Toxic

O=C1C=CC(=O)N1Cc1ccccc1
inhibition [1]: inactive

O=C1C([Se]c2ccccc2Cl)=C([Se]c2ccccc2Cl)C(=O)N1Cc1ccccc1
inhibition [1]: inactive

O=C1C([Se]c2ccccc2)=C([Se]c2ccccc2)C(=O)N1Cc1ccccc1Br
inhibition [1]: inactive | Activity [2]: Toxic

O=C1C=C([Se]c2ccccc2)C(=O)N1Cc1ccccc1
inhibition [1]: inactive

COc1ncccc1[Se]C1=C([Se]c2cccnc2OC)C(=O)N(c2ccccc2)C1=O
inhibition [1]: inactive | Activity [2]: Toxic

Cc1ccc([Se]C2=C([Se]c3ccc(C)cc3)C(=O)N(c3ccccc3)C2=O)cc1
inhibition [1]: Active | Activity [2]: Toxic

COc1ccc(CN2C(=O)C([Se]c3ccccc3)=C([Se]c3ccccc3)C2=O)cc1
inhibition [1]: inactive

O=C1C([Se]c2cccc(Br)c2)=C([Se]c2cccc(Br)c2)C(=O)N1Cc1ccccc1
inhibition [1]: inactive

O=C1C([Se]c2ccccc2)=C([Se]c2ccccc2)C(=O)N1c1c(Cl)cc(Cl)cc1Cl
inhibition [1]: inactive

CCc1ccc(N2C(=O)C([Se]c3ccccc3)=C([Se]c3ccccc3)C2=O)cc1
inhibition [1]: Active | Activity [2]: Toxic

O=C1C([Se]c2ccc(Br)cc2)=C([Se]c2ccc(Br)cc2)C(=O)N1c1ccccc1
inhibition [1]: inactive | Activity [2]: Toxic

Cc1ccccc1[Se]C1=C([Se]c2ccccc2C)C(=O)N(Cc2ccccc2)C1=O
inhibition [1]: inactive

COC(=O)CCN1C(=O)C([Se]c2ccccc2)=C([Se]c2ccccc2)C1=O
inhibition [1]: inactive

CC(C)(C)N1C(=O)C([Se]c2ccccc2)=C([Se]c2ccccc2)C1=O
inhibition [1]: inactive

O=C1C([Se]c2ccccc2)=C([Se]c2ccccc2)C(=O)N1Cc1ccc(Cl)cc1
inhibition [1]: inactive

Cc1cccc(CN2C(=O)C([Se]c3ccccc3)=C([Se]c3ccccc3)C2=O)c1
inhibition [1]: inactive | Activity [2]: Toxic

O=C1C([Se]c2ccccc2)=C([Se]c2ccccc2)C(=O)N1Cc1cccc(Cl)c1
inhibition [1]: inactive | Activity [2]: Toxic

O=C1C([Se]c2ccccc2)=C([Se]c2ccccc2)C(=O)N1c1ccccc1
inhibition [1]: inactive

O=C1C([Se]c2ccccc2)=C([Se]c2ccccc2)C(=O)N1Cc1cccc(F)c1
inhibition [1]: inactive

O=C1C(Sc2ccccc2)=C(Sc2ccccc2)C(=O)N1Cc1ccccc1
inhibition [1]: inactive

O=C1C([Se]c2cccc([N+](=O)[O-])c2)=C([Se]c2cccc([N+](=O)[O-])c2)C(=O)N1Cc1ccccc1
inhibition [1]: inactive

O=C1C([Se]c2cccc(Cl)c2)=C([Se]c2cccc(Cl)c2)C(=O)N1Cc1ccccc1
inhibition [1]: inactive

Cc1cccc([Se]C2=C([Se]c3cccc(C)c3)C(=O)N(Cc3ccccc3)C2=O)c1
inhibition [1]: inactive

O=C1C([Se]c2ccccc2)=C([Se]c2ccccc2)C(=O)N1Cc1cccc(Br)c1
inhibition [1]: inactive

O=C1C([Se]c2ccccc2)=C([Se]c2ccccc2)C(=O)N1Cc1ccc(I)cc1
inhibition [1]: inactive

COc1ccccc1[Se]C1=C([Se]c2ccccc2OC)C(=O)N(Cc2ccccc2)C1=O
inhibition [1]: inactive

O=C1C([Se]c2ccccc2)=C([Se]c2ccccc2)C(=O)N1C1CCCCC1
inhibition [1]: inactive

O=C1C([Se]c2ccccc2)=C([Se]c2ccccc2)C(=O)N1Cc1ccc(F)cc1
inhibition [1]: inactive

C[Se]C1=C([Se]C)C(=O)N(Cc2ccccc2)C1=O
inhibition [1]: inactive
